No end group written: not given here.
Experiment: Efficacy test for calcium solubilizing effect in vivo (soluble calcium in small intestine contents, atomic absorption spectrometer)
Parameters: species or system Wister Rats
Details: for Calcium concentration in the small intestine, Lower part / Calcium concentration in the small intestine, Total / Calcium concentration in the small intestine, Upper part: measured one hour after feeding, mean ± standard deviation
Method: Efficacy test for calcium solubilizing effect In vivo
Forty Wister Rats weighing about 120 g on an average were supplied with a controlled diet consisting of 24 wt % of crude proteins, 5 wt % of crude fats, 60 wt % of starches, 5 wt % of crude fibers, 5 wt % of minerals and 1 wt % of vitamins for a week and then starved for 24 hours. The rats were divided into 4 groups, each group including 10 rats.
Rats of the first group were supplied with a controlled diet including 10 wt % of the beta-casein H for 1.5 hours.
Rats of the second group were supplied with a controlled diet including 10 wt % of a conventional beta-casein for 1.5 hours.
Rats of the third group were supplied with a controlled diet including 1 wt % of the CPP in accordance with the present invention for 1.5 hours.
Rats of the fourth group were supplied with a controlled diet including 1 wt % of the conventional CPP for 1.5 hours.
All rats were allowed to freely have the controlled diets as much as they can. One hour after the completion of the above feeding, all rats were anesthetized, and the small intestines were excised therefrom. The small intestines were washed with a saline solution and then divided into two parts, i.e, the upper part and the lower part.
Thereafter, the contents in the small intestine were isolated, homogenized and centrifugated. A calcium in the supernant was measured three times by an atomic absorption spectrometer (Perkin Elmer Co.).

[1] = CPP feed, 3rd Group (inventive CPP) over 4th Group (conventional CPP)
[2] = CPP feed, controlled diet including 1 wt % CPP for 1.5 hours
[3] = casein feed, controlled diet including 10 wt % casein for 1.5 hours

Row | Molecule | Improvement (%) of calcium concentration, Lower part [1] [%] | Improvement (%) of calcium concentration, Total [1] [%] | Improvement (%) of calcium concentration, Upper part [1] [%] | Improvement (%) of calcium concentration, Total (CPP feed, 3rd Group (inventive CPP) over 4th Group (conventional CPP), listed as present CPP) [%] | Calcium concentration in the small intestine, Lower part [2] [ppm] | Calcium concentration in the small intestine, Total [2] [ppm] | Calcium concentration in the small intestine, Upper part [2] [ppm] | Calcium concentration in the small intestine, Total (CPP feed, controlled diet including 1 wt % CPP for 1.5 hours, listed as present CPP) [ppm] | Calcium concentration in the small intestine, Lower part [3] [ppm] | Calcium concentration in the small intestine, Total [3] [ppm] | Calcium concentration in the small intestine, Upper part [3] [ppm]
1 | CPP in accordance with the present invention: casein phosphopeptide of SEQ. ID NO: 1, 28 amino acids, 25th Arg of the conventional CPP substituted by Cys (RELEELNVPGEIVESLSSSEESITCINK; also: phosphorylated, sites not given here) | 29.8 | 23.1 | 7.0 | 23 | 51.02 ± 3.1 | 68.20 ± 2.5 | 17.18 ± 1.9 | 68.20 | – | – | –
2 | conventional beta-casein: conventional beta-casein fed to the second group as comparison (protein, UniProt P02666 16-224, looked up) Beta-casein: RELEELNVPGEIVESLSSSEESITRINKKIEKFQSEEQQQTEDELQDKIHPFAQTQSLVYPFPGPIPNSLPQNIPPLTQTPVVVPPFLQPEVMGVSKVKEAMAPKHKEMPFPKYPVEPFTESQSLTLTDVENLHLPLPLLQSWMHQPHQPLPPTVMFPPQSVLSLSQSKVLPVPQKAVPYPQRDMPIQAFLLYQEPVLGPVRGPFPIIV | – | – | – | – | – | – | – | – | 35.11 ± 2.3 | 50.60 ± 2.0 | 15.49 ± 1.7

From patent US5834427A, “Casein phosphopeptide, casein containing same and process for the preparation thereof” (Han; Sang Kee, priority 1995, dated 1998)
